According to BigSolDB 2.1:

O=C(O)Cn1cnnn1
Details | solubility (mole fraction)
in acetone, 288.23 K | 0.0964
in acetone, 293.32 K | 0.105
in acetone, 298.24 K | 0.115
in acetone, 303.31 K | 0.125
in acetone, 308.18 K | 0.136
in acetone, 313.26 K | 0.149
in acetone, 318.27 K | 0.162
in acetone, 323.23 K | 0.175
in ethanol, 283.27 K | 0.0517
in ethanol, 288.17 K | 0.0621
in ethanol, 293.46 K | 0.075
in ethanol, 298.22 K | 0.0891
in ethanol, 303.31 K | 0.108
in ethanol, 308.17 K | 0.129
in ethanol, 313.23 K | 0.157
in ethanol, 318.21 K | 0.189
in ethanol, 323.26 K | 0.229
in ethyl acetate, 288.27 K | 0.0121
in ethyl acetate, 293.28 K | 0.0138
in ethyl acetate, 298.19 K | 0.0154
in ethyl acetate, 303.31 K | 0.0173
in ethyl acetate, 308.22 K | 0.0193
in ethyl acetate, 313.26 K | 0.0218
in ethyl acetate, 318.16 K | 0.0246
in ethyl acetate, 323.21 K | 0.0281
in isopropanol, 288.17 K | 0.0282
in isopropanol, 293.22 K | 0.0374
in isopropanol, 298.26 K | 0.0491
in isopropanol, 303.2 K | 0.063
in isopropanol, 308.21 K | 0.0794
in isopropanol, 313.29 K | 0.0985
in isopropanol, 318.24 K | 0.119
in isopropanol, 323.27 K | 0.143
in methanol, 288.18 K | 0.145
in methanol, 293.29 K | 0.155
in methanol, 298.23 K | 0.173
in methanol, 303.22 K | 0.199
in methanol, 308.24 K | 0.233
in methanol, 313.34 K | 0.276
in methanol, 318.22 K | 0.326
in methanol, 323.19 K | 0.383
in n-butyl acetate, 288.22 K | 0.00443
in n-butyl acetate, 293.3 K | 0.00483
in n-butyl acetate, 298.33 K | 0.00552
in n-butyl acetate, 303.18 K | 0.00647
in n-butyl acetate, 308.22 K | 0.00773
in n-butyl acetate, 313.3 K | 0.00931
in n-butyl acetate, 318.24 K | 0.0111
in n-butyl acetate, 323.28 K | 0.0133
in n-propanol, 288.27 K | 0.0312
in n-propanol, 293.21 K | 0.0386
in n-propanol, 298.23 K | 0.0464
in n-propanol, 303.29 K | 0.0557
in n-propanol, 308.33 K | 0.068
in n-propanol, 313.18 K | 0.0839
in n-propanol, 318.22 K | 0.106
in n-propanol, 323.32 K | 0.135
in water, 283.17 K | 0.00729
in water, 288.31 K | 0.0109
in water, 293.28 K | 0.016
in water, 298.24 K | 0.0234
in water, 303.19 K | 0.0348
in water, 308.3 K | 0.0549
in water, 313.17 K | 0.0826
in water, 318.22 K | 0.122
in water, 323.16 K | 0.173
